Measurements: patent publication US3954778A, “Aminoacetyl derivatives of 2,3-diphenyl cyclopropyl amine” (priority 1970, dated 1976)
Where a name gives a salt, the structure may show the parent alone. Read-outs that look alike come from different tables or passages of the source.

Assays:
male albine Swiss mice [1] = test: Electroshock (M.E.S.); format: in vivo; settings: for ED50: Mus musculus
Protocol: (§1) Materials and methods. The animals used to perform the pharmacological tests with the compounds of the invention have been, unless the contrary is explicitly indicated, male albine Swiss mice weighing 19-23 g; each animal has been used only once.
(§2) The compounds have been administered as hydrochlorides, under skin (0.1 ml/10 g) 30 minutes ante; for determining the LD50, the compounds have been administered by intraperitoneal route and were considered deaths occured in the 72 hours following the treatment.
(§3) As reference compounds there was used: ethosuximide injected under skin 30 minutes ante (before); Phenurone per os 60 minutes ante; phenobarbital sodium salt under skin 30 minutes ante, trimethadione under skin 30 minutes ante; primidone per os 6 hours ante and Mephenesin under skin 30 minutes ante.
Electroshock (M.E.S.) -- The method adopted in making the electroshock is Cashin C.
(§4) The so-obtained data have been elaborated by calculating the ED50 and the LD50 according to Lichtfield-Wilcoxon's method (J. Pharmacol. 1949, 96, 99).

male albine Swiss mice [2] = test: Shock by cardiazol (M.M.S.); format: in vivo; settings: for ED50: Mus musculus
Protocol: as §1, §2, §3
Under such conditions the results obtained with the reference compounds are in good agreement with those reported in the art for the same compounds (E. A. Swinyard, W. C. Brown, L. S. Goodman --J. Pharmacol., 1952, 106, 3 19). Shock by cardiazol (M.M.S.) -- 38 mg/kg of cardiazol, in the form of a 0.38% aqueous solution, is quickly injected in the dorsal vein of the mouse's tail (L. S. Goodman, M. Singh Grewal, W. C. Brown, E. A. Swinyard -- J. Pharmacol. 1953, 108, 168). The animals are considered as protected when the extensor phase of the hind paws is eliminated during the tonic crisis.
as §4

rat = test: Inhibition of calcium chloride induced cardiac arrhythmias in rats; format: in vivo; settings: for minimal effective dose: read-out: active dose (complete inhibition of cardiac arrhythmias)
Protocol: The new compounds of the invention are deprived of MAO-inhibiting activity in live rats, both on the mithocondres of hepatic tissue and on the mithocondres of homogenatous of cerebral tissue, even if administered in doses of 100-200 mg/kg per os. […] In particular the activity in cardiac arrhythmias of N-pyrrolidinoacetyl-2,3-cis, trans-diphenylcyclopropylamine has been studied by experimentally inducing arrhythmias in rats by means of calcium chloride, and in dogs by means of adrenaline.
The experiments in rats have been performed as follows:
There was determined the inhibiting effect of N-pyrrolidine acetyl-2,3-cis,trans-diphenylcyclopropylamine hydrochloride on the cardiac arrhythmias arising within the 5 minutes following the calcium chloride administration in comparison with quinidine, procaine and propranolol.

dog = test: Protection from adrenaline induced cardiac arrhythmias in dogs; format: in vivo; settings: 1 mg/kg intravenous
Protocol: The new compounds of the invention are deprived of MAO-inhibiting activity in live rats, both on the mithocondres of hepatic tissue and on the mithocondres of homogenatous of cerebral tissue, even if administered in doses of 100-200 mg/kg per os. As found also with other anticonvulsive drugs, the new compounds of the present invention are endowed with a good antiarrhythmic activity. In particular the activity in cardiac arrhythmias of N-pyrrolidinoacetyl-2,3-cis, trans-diphenylcyclopropylamine has been studied by experimentally inducing arrhythmias in rats by means of calcium chloride, and in dogs by means of adrenaline.
The experiments with dogs have been performed as follows:
The dog has been anesthetized with chloralose and then administered by intravenous injection with 30 γ/kg of adrenaline. The results were evaluated according to Somani and Lum B. K. B. (J. Pharmacol. Expt. Therap. 1965, 147, 194-202).

Acute toxicity LD50 = settings: mouse, in vivo, ip
Protocol: as §1, §2, §4

[3] = sc, 0.5 h, new compounds (Table 2), as hydrochlorides, under skin 30 minutes ante, read-out: ED50 M.E.S.
[4] = sc, 0.5 h, new compounds (Table 2), as hydrochlorides, under skin 30 minutes ante, cardiazol 38 mg/kg i.v., read-out: ED50 M.M.S.
[5] = sc, 0.5 h, reference compounds (Table 1), under skin 30 minutes ante, cardiazol 38 mg/kg i.v., read-out: M.M.S. ED50
[6] = sc, 0.5 h, read-out: M.M.S. ED50

1.1-dimethyl-3-phenyl-urea [Phenurone, reference compound]
M.E.S. ED50 (male albine Swiss mice [1]; Phenurone (Table 1), per os 60 minutes ante): 115 mg/kg | M.M.S. ED50 (male albine Swiss mice [2]; Phenurone (Table 1), per os 60 minutes ante, cardiazol 38 mg/kg i.v.): 50 mg/kg

CC(C)N(CC(=O)NC1[C@H](c2ccccc2)[C@H]1c1ccccc1)C(C)C (relative stereo) [N-diisopropylaminoacetyl-2,3-cis,trans-diphenylcyclopropylamine]
ED50 (male albine Swiss mice [1]; [3]): 135 mg/kg | ED50 (male albine Swiss mice [2]; [4]): 87 mg/kg

O=C(CN1CCCC1)NC1[C@H](c2ccccc2)[C@H]1c1ccccc1 (relative stereo) [N-pyrrolidinoacetyl-2,3-cis,trans-diphenylcyclopropylamine hydrochloride]
minimal effective dose (rat; calcium chloride 80 mg/kg i.v., anesthetized rat, drug 90 seconds before calcium chloride): 2 mg/kg | duration of activity (rat; rat, calcium chloride arrhythmia, dose 2 mg/kg): about 20 minutes | protection from adrenaline arrhythmia (dog; 2 minutes ante adrenaline (30 γ/kg i.v.)): completely protected | duration of effect (dog; adrenaline arrhythmia): 60 min

O=C(CN1CCCCC1)NC1[C@H](c2ccccc2)[C@H]1c1ccccc1 (relative stereo) [cis-trans, N-piperidinoacetyl-2,3-cis,trans-diphenylcyclopropylamine hydrochloride]
LD50 at 72 h (Acute toxicity LD50): 88 mg/kg | ED50 (male albine Swiss mice [1]; [3]): 14.5 mg/kg | ED50 (male albine Swiss mice [2]; [4]): 6 mg/kg

O=C(CN1CCCC1)NC1[C@H](c2ccccc2)[C@H]1c1ccccc1 (relative stereo) [cis-trans, N-pyrrolidinoacetyl-2,3-cis,trans-diphenylcyclopropylamine]
LD50 at 72 h (Acute toxicity LD50): 67.5 mg/kg | ED50 (male albine Swiss mice [1]; [3]): 9 mg/kg | ED50 (male albine Swiss mice [2]; [4]): 5.6 mg/kg

CCN(CC)CC(=O)NC1[C@H](c2ccccc2)[C@H]1c1ccccc1 (relative stereo) [cis-trans, R1 = C2 H5, R2 = C2 H5, N-dietylaminoacetyl-2,3-cis-trans-diphenylcyclopropylamine]
LD50 at 72 h (Acute toxicity LD50): 92.5 mg/kg | ED50 (male albine Swiss mice [1]; [3]): 14.2 mg/kg | ED50 (male albine Swiss mice [2]; [4]): 12.5 mg/kg

CN(C)CC(=O)NC1[C@H](c2ccccc2)[C@H]1c1ccccc1 (relative stereo) [cis-trans, R1 = CH3, R2 = CH3, N-dimethylaminoacetyl-2,3-cis,trans-diphenylcyclopropylamine]
ED50 (male albine Swiss mice [1]; [3]): 16.5 mg/kg | ED50 (male albine Swiss mice [2]; [4]): 16 mg/kg

CCNCC(=O)NC1[C@H](c2ccccc2)[C@H]1c1ccccc1 (relative stereo) [cis-trans, R1 = H, R2 = C2 H5, N-ethylaminoacetyl-2,3-cis,trans-diphenylcyclopropylamine hydrochloride]
LD50 at 72 h (Acute toxicity LD50): 85 mg/kg | ED50 (male albine Swiss mice [1]; [3]): 16.5 mg/kg | ED50 (male albine Swiss mice [2]; [4]): 13 mg/kg

CNCC(=O)NC1[C@H](c2ccccc2)[C@H]1c1ccccc1 (relative stereo) [cis-trans, R1 = H, R2 = CH3, N-methylaminoacetyl-2,3-cis,trans-diphenyl-cylcopropylamine hydrochloride]
LD50 at 72 h (Acute toxicity LD50): 112 mg/kg | ED50 (male albine Swiss mice [1]; [3]): 25.5 mg/kg | ED50 (male albine Swiss mice [2]; [4]): 30 mg/kg

CCCN(CCC)CC(=O)NC1[C@H](c2ccccc2)[C@H]1c1ccccc1 (relative stereo) [cis-trans, R1 = n-C3 H7, R2 = n-C3 H7, di-n-propylaminoacetyl-2,3-cis, trans-diphenylcyclopropylamine hydrochloride]
ED50 (male albine Swiss mice [1]; [3]): > 100 mg/kg | ED50 (male albine Swiss mice [2]; [4]): 175 mg/kg

CCCCN(CCCC)CC(=O)NC1[C@H](c2ccccc2)[C@H]1c1ccccc1 (relative stereo) [cis-trans, R1 = n-C4 H9, R2 = n-C4 H9, N-di-n-butylaminoacetyl-2,3-cis,trans-diphenylcyclopropylamine]
ED50 (male albine Swiss mice [1]; [3]): > 250 mg/kg | ED50 (male albine Swiss mice [2]; [4]): > 250 mg/kg

CCC1(C)CC(=O)NC1=O (stereo not drawn) [Ethosuximide, reference compound]
ED50 (male albine Swiss mice [2]; [5]): 50 mg/kg

Cc1ccccc1OCC(O)CO (stereo not drawn) [Mephenesin, reference compound]
ED50 (male albine Swiss mice [2]; [5]): 180 mg/kg

O=C1NC(=O)C(c2ccccc2)(c2ccccc2)N1 [Phenitoine Sodium salt, reference compound]
ED50 (male albine Swiss mice [1]; Phenitoine sodium salt (Table 1), route and time not stated, read-out: M.E.S. ED50): 15 mg/kg | ED50 (male albine Swiss mice [2]; iv, Phenitoine sodium salt (Table 1), route and time not stated, cardiazol 38 mg/kg i.v., read-out: M.M.S. ED50): 7.1 mg/kg

CCC1(c2ccccc2)C(=O)NC(=O)NC1=O [Phenobarbital sodium salt, reference compound]
ED50 (male albine Swiss mice [1]; sc, 0.5 h, read-out: M.E.S. ED50): 35 mg/kg | ED50 (male albine Swiss mice [2]; [6]): 4.5 mg/kg

CCC1(c2ccccc2)C(=O)NCNC1=O [Primidone, reference compound]
ED50 (male albine Swiss mice [2]; po, Primidone (Table 1), per os 6 hours ante, cardiazol 38 mg/kg i.v., read-out: M.M.S. ED50): 5.2 mg/kg

CN1C(=O)OC(C)(C)C1=O [Trimethadione, reference compound]
ED50 (male albine Swiss mice [2]; [6]): 175 mg/kg

CCN(CC)CCOC(=O)c1ccc(N)cc1 [procaine]
minimal effective dose (rat; Rattus norvegicus): 5 mg/kg

CC(C)NCC(O)COc1cccc2ccccc12 (stereo not drawn) [propranolol]
minimal effective dose (rat; Rattus norvegicus): 1 mg/kg

C=C[C@H]1C[N@@]2CC[C@H]1C[C@@H]2[C@@H](O)c1ccnc2ccc(OC)cc12 [quinidine]
minimal effective dose (rat; Rattus norvegicus): 2.5 mg/kg

O=C(CN1CCCC1)N[C@@H]1[C@@H](c2ccccc2)[C@H]1c1ccccc1 [trans-trans, N-pyrrolidinoacetyl-2,3-trans,trans-diphenylcyclopropylamine hydrochloride]
LD50 at 72 h (Acute toxicity LD50): 266 mg/kg | ED50 (male albine Swiss mice [1]; [3]): 87 mg/kg
